Series [1] concerns testosterone level in NCI-H295R cells. Description: cells. It is filed as cell-based. Particulars: Homo sapiens, NCI-H295R, 72 h; for IC50: read-out: Testosterone level in H295R (Elisa) IC50 nM. As to the method: The purpose of the experimental study was intended to detect the testosterone level in the NCI-H295R cells by adopting the Enzyme linked immunosorbent assay (ELISA), so as to evaluate the inhibitory effects of the compounds on the testosterone level in the NCI-H295R cells.
The H295R cells were purchased from ATCC, the cell complete medium contained DMEM: F12+ 10% FBS +0.00625 mg/ml insulin +0.00625 mg/ml transferrin+6.25 ng/ml selenium +1.25 mg/ml BSA+0.00535 mg/ml linoleic acid, and the cells were cultured in a 37°C, 5% CO2 incubator. The cells in the exponential growth phase were collected, and cultured in a cytokine-free medium (phenol red 1640-free +1% PS+10% css FBS+1.25 mg/ml BSA +0.00625 mg/ml insulin + 0.00625 mg/ml transferrin+6.25 ng/ml selenium+0.00535 mg/ml linoleic acid) for three days. The cells in the exponential growth phase were collected on the third day. The cell suspension was adjusted with a cytokine-free medium to a corresponding concentration and plated at 60000 cells/well, with the volume being 90 µL/well. Subsequently, 10 µL of the compounds at different concentrations was added and the plate was incubated in a CO2 incubator for three days. After the incubation was completed, according to the operation instructions for testosterone Elisa kit (Beyotime, PT872), 50 µL of the cell culture supernatant was collected from each well and centrifuged at 500 g for 5 min at room temperature and then the resulting supernatant was collected. The samples were added to the corresponding wells at 25 µl/well, and then formulated horseradish peroxidase labelled testosterone was added at 75 µl/well. The mixture was fully mixed for 10 seconds. The reaction wells were sealed with a plate-sealing film (white) and the mixture was incubated at room temperature in the dark for 120 min. The plate was washed three times with a volume of 300 µl per well, and then placed onto thick absorbent paper and dried. Chromogenic reagent TMB solution was added at 100 µl/well. The reaction wells were sealed with a plate-sealing film (white) and the mixture was incubated at room temperature in the dark for 15-20 min. Subsequently, a termination solution was added at 50 µl/well, and after the mixture was fully mixed, the absorbance value OD450 was immediately measured. The absorbance readings were processed using Graphpad Prim 8.0 software and S-shaped concentration curves were plotted and the IC50 values were calculated using a four-parameter non-linear regression model.

In series [2] the test system is pregnenolone level in NCI-H295R cells. Description: cells. Particulars: Homo sapiens, 72 h. Type of series: cell-based. On the procedure: 2. The purpose of the experimental study was intended to detect the pregnenolone level in the NCI-H295R cells by adopting the Enzyme linked immunosorbent assay (ELISA), so as to evaluate the inhibitory effects of the compounds on the pregnenolone level in the NCI-H295R cells.
The H295R cells were purchased from ATCC (CRL-2128), the cell complete medium contained DMEM: F12+ 10% FBS +0.00625 mg/ml insulin+0.00625 mg/mL transferrin+6.25 ng/mL selenium+1.25 mg/mL BSA+0.00535 mg/mL linoleic acid, and the cells were cultured in a 37°C, 5% CO2 incubator. The cells in the exponential growth phase were collected, and cultured in a cytokine-free medium (phenol red 1640-free +1% PS+10% css FBS+1.25 mg/mL BSA +0.00625 mg/mL insulin+0.00625 mg/mL transferrin+6.25 ng/mL selenium+0.00535 mg/mL linoleic acid) for three days. The cells in the exponential growth phase were collected on the third day. The cell suspension was adjusted with a cytokine-free medium to a corresponding concentration and plated at 60000 cells/well, with the volume being 90 µL/well. Subsequently, 10 µL of the compounds at different concentrations was added and the plate was incubated in a CO2 incubator for three days. After the incubation was completed, the cell culture supernatant was collected and centrifuged at 2°C-8°C at 800×g for 10 min. The resulting supernatant was collected. Determination was carried out according to the operation instructions for pregnenolone Elisa kit (Antibodies-A73791), and the OD450 signal was read.
2.1 Standard curve plotting. The standard concentration was taken as the abscissa and the OD450 value as the ordinate, the coordinate points of various standards were connected with a smooth line and a curve was fitted according to the four parameter logistic (4-PL) method.
2.2 Sample quantification: The corresponding concentration (CONC) of testosterone/pregnenolone in the sample was calculated using the absorbance value of the sample and the standard curve. According to formula (1), the inhibition rate of the compound at various concentrations was calculated, and S-shaped concentration curves were plotted and the IC50 values (i.e., concentration of the compound at which the inhibition rate was 50%) were calculated using a three parameter non-linear regression model in Graphpad Prim 8.0 software. CONC cpd was the concentration of the treated group, and CONC ctrl was the average concentration value of the solvent control group. Inhibition rate% = 100%−CONCcpd /CONCctrl × 100% [formula] Table 3 Inhibitory effects of compounds on pregnenolone level in NCI-H295R cells

A short description of series [3]: Pharmacokinetic test in rats. Type of series: in vivo. Particulars: rat, male SD rats, plasma; for Vd: read-out: Vdss. As to the method: 3.1 Experimental animals: Male SD rats (about 220 g, 6-8 weeks old, 6 rats/compound) were purchased from Chengdu Dossy Experimental Animals Co., Ltd.
3.2 Experimental design: On the day of the experiment, the SD rats were randomly grouped by body weight. […] Table 4 Administration information
Before and after the administration, 0.1 ml of blood was taken from the orbit of the animals under isoflurane anaesthesia and placed in an EDTAK2 centrifuge tube. The blood was centrifuged at 5000 rpm and 4°C for 10 min to collect plasma. […] Before analysis and detection, all samples were stored at -80°C. Table 5 Pharmacokinetic parameters of test compounds in plasma of rats

A short description of series [4]: Pharmacokinetic test in mice. It is filed as in vivo. Particulars: mouse, male ICR mice, plasma; for Vd: read-out: Vdss. On the procedure: 4.1. Experimental animals: Male ICR mice, 20-25 g, 6 mice/compound, were purchased from Chengdu Dossy Experimental Animals Co., Ltd.
4.2 Experimental design: on the day of the experiment, the ICR mice were randomly grouped according to their body weights. […] Table 6 Administration information
Before and after administration, 0.06 mL of blood was taken from the orbit under isoflurane anaesthesia and placed in an EDTAK2 centrifuge tube. The tube was centrifuged at 5000 rpm at 4°C for 10 min, and plasma was collected. […] Before analysis and detection, all samples were stored at -80°C, and the samples were quantitatively analysed by LC-MS/MS.

[5] abbreviates: read-out: Testosterone level in H295R (Elisa) inh.% 100 nM.
Where [6] appears, read: read-out: Testosterone level in H295R (Elisa) inh.% 1000 nM.
Where [7] appears, read: po, intragastric administration (10 mg/kg).
[8] abbreviates: intravenous administration (2.5 mg/kg).

Like-named read-outs stand apart in the source and are kept apart here.

For orientation: IC50 means the concentration that inhibits the measured activity by half. What is called AUC(0-t) is the area under the concentration-time curve up to a stated or last time point. Read a high AUC(0-t) as more exposure. The half-life is how long it takes for the measured level to halve. Lower therefore signals fast loss. The term clearance denotes the volume of plasma or blood freed of the substance per unit of time.

Consider `O=C(OC1CC1)N1CCC(COc2coc(CN3Cc4ccc(OC5CC5)cc4C3)cc2=O)CC1` [Compound 27], for which the IC50 in series [1] was determined as 50.1 nM. Further, the inhibition at 0.1 µM in series [1] (read-out: Testosterone level in H295R (Elisa) inh.% 100 nM, 100 nM compound, NCI-H295R cells, three days incubation) stood at 78%; in series [2] (read-out: Pregnenolone level in H295R (Elisa) inh.% 100 nM) it was 65.5%. In addition, the inhibition at 1 µM in series [1] (read-out: Testosterone level in H295R (Elisa) inh.% 1000 nM, 1000 nM compound, NCI-H295R cells, three days incubation) stood at 68%; in series [2] (read-out: Pregnenolone level in H295R (Elisa) inh.% 1000 nM), 67.5%.
On to `O=C(CC1CC1)N1CCC(/C=C/c2coc(CN3Cc4ccc(C(F)(F)F)cc4C3)cc2=O)CC1` [Compound 52], for which the IC50 in series [1] was 98.2 nM. Moreover, the inhibition at 0.1 µM in series [1] (setting [5]) was 55.8%. Besides, the inhibition at 1 µM in series [1] (setting [6]) is 74.9%. In series [3] (setting [7]), this molecule had an AUC(0-t) of 10500 ng·h/mL and a half-life of 2.21 h. In series [3] (setting [8]), the AUC(0-t) turned out to be 3300 ng·h/mL, the clearance is 12.3 mL/min/kg, the half-life was 1.37 h and the Vd came to 1.39 L/kg.
Regarding `CS(=O)(=O)N1CC(OC(=O)N[C@H]2CC[C@H](COc3coc(CN4Cc5ccc(C(F)(F)F)cc5C4)cc3=O)CC2)C1` [Compound 64], the inhibition at 0.1 µM in series [1] (setting [5]) was 73%. In series [1] (setting [6]), the inhibition at 1 µM is 75%. In series [3] (setting [7]), this molecule gave an AUC(0-t) of 10100 ng·h/mL and a half-life of 2.92 h. Also, in series [3] (setting [8]), the AUC(0-t) was found to be 3440 ng·h/mL, the clearance amounted to 12.1 mL/min/kg, the half-life was 2.65 h and the Vd was 2.09 L/kg.
Turning to `O=c1cc(CN2Cc3ccc(C(F)(F)F)cc3C2)occ1/C=C/[C@H]1CC[C@H](NC(=O)[C@H]2C[C@H](F)C2)CC1` [Compound 101], the inhibition at 0.1 µM in series [1] (setting [5]) turned out to be 73%. Besides, in series [1] (setting [6]), the inhibition at 1 µM is 71%. Further, in series [3] (setting [7]), the AUC(0-t) amounted to 11600 ng·h/mL and the half-life is 3.59 h. In series [3] (setting [8]), the AUC(0-t) amounted to 5640 ng·h/mL, the clearance came to 7.45 mL/min/kg, the half-life was 2.96 h and the Vd was 1.47 L/kg.
Consider `[2H]C([2H])([2H])C(=O)N[C@H]1CC[C@H](COc2coc(CN3Cc4ccc(C(F)(F)F)cc4C3)cc2=O)CC1` [Compound 33], for which the half-inhibitory concentration (IC50) in series [1] is 68 nM. In addition, in series [3] (setting [7]), the AUC(0-t) was determined as 19600 ng·h/mL and the half-life was 2.04 h. In series [4] (setting [7]), this molecule gave an AUC(0-t) of 8430 ng·h/mL and a half-life of 2.45 h. In addition, in series [4] (setting [8]), the AUC(0-t) turned out to be 2090 ng·h/mL, the clearance is 19.9 mL/min/kg, the half-life is 0.908 h and the Vd was determined as 1.19 L/kg.
Consider `Cn1cc(C(=O)N[C@H]2CC[C@H](COc3coc(CN4Cc5ccc(C(F)(F)F)cc5C4)cc3=O)CC2)cn1` [Compound 35], for which the inhibition at 0.1 µM in series [1] (setting [5]) is 72.8%. Moreover, the inhibition at 1 µM in series [1] (setting [6]) came to 75.5%. In series [3] (setting [7]), this molecule had an AUC(0-t) of 18300 ng·h/mL and a half-life of 2.84 h. Also, in series [3] (setting [8]), the AUC(0-t) came out at 9100 ng·h/mL, the clearance came to 4.66 mL/min/kg, the half-life was 2.71 h and the Vd turned out to be 0.788 L/kg. In series [4] (setting [7]), this molecule showed an exposure AUC(0-t) of 24200 ng·h/mL and a half-life of 2.85 h. In series [4] (setting [8]), the AUC(0-t) stood at 12500 ng·h/mL, the clearance turned out to be 3.34 mL/min/kg, the half-life was 2.68 h and the Vd came out at 0.557 L/kg.
Regarding `O=C(N[C@H]1CC[C@H](COc2coc(CN3Cc4ccc(C(F)(F)F)cc4C3)cc2=O)CC1)C1COC1` [Compound 63], the inhibition at 0.1 µM in series [1] (setting [5]) amounted to 64%. The inhibition at 1 µM in series [1] (setting [6]) came out at 75%. In series [3] (setting [7]), this molecule had an AUC(0-t) of 19100 ng·h/mL and a half-life of 2.18 h.
For the molecule `O=C(N[C@H]1CC[C@@H](COc2coc(CN3Cc4ccc(C(F)(F)F)cc4C3)cc2=O)CC1)C1COC1` [Compound 54], the inhibition at 0.1 µM in series [1] (setting [5]) was found to be 53.2%. Also, in series [1] (setting [6]), the inhibition at 1 µM came to 72.2%. In series [4] (setting [7]), the AUC(0-t) turned out to be 28100 ng·h/mL and the half-life is 2.97 h. Besides, in series [4] (setting [8]), the exposure AUC(0-t) was found to be 5870 ng·h/mL, the clearance was found to be 7.19 mL/min/kg, the half-life is 2.98 h and the Vd stood at 1.17 L/kg.
In the case of `C/C(=C\[C@H]1CC[C@H](NC(=O)c2cnn(C)c2)CC1)c1coc(CN2Cc3ccc(C(F)(F)F)cc3C2)cc1=O` [Compound 107], the inhibition at 0.1 µM in series [1] (setting [5]) turned out to be 60%. The inhibition at 1 µM in series [1] (setting [6]) stood at 78%. In series [3] (setting [7]), this molecule gave an AUC(0-t) of 22500 ng·h/mL and a half-life of 4.15 h. In series [3] (setting [8]), the AUC(0-t) was 6030 ng·h/mL, the clearance is 6.96 mL/min/kg, the half-life is 3.39 h and the Vd is 1.55 L/kg.
For the molecule `Cc1nc(C(=O)N[C@H]2CC[C@H](/C=C/c3coc(CN4Cc5ccc(C(F)(F)F)cc5C4)cc3=O)CC2)co1` [Compound 84], the IC50 in series [2] (read-out: Pregnenolone level in H295R (Elisa) IC50 nM) was 121 nM.
For the molecule `O=c1cc(CN2Cc3ccc(C(F)(F)F)cc3C2)occ1/C=C/[C@H]1CC[C@H](NC(=O)[C@H]2C[C@@H](F)C2)CC1` [Compound 100], the inhibition at 0.1 µM in series [1] (setting [5]) is 70%. The inhibition at 1 µM in series [1] (setting [6]) was found to be 85%. Besides, in series [3] (setting [7]), the AUC(0-t) was determined as 17500 ng·h/mL and the half-life was 2.29 h. In addition, in series [3] (setting [8]), the AUC(0-t) was 4660 ng·h/mL, the clearance came to 8.86 mL/min/kg, the half-life is 1.8 h and the Vd came out at 1.29 L/kg.

Source of the values: patent EP4692079A1, “CYP11A1 INHIBITOR AND USE THEREOF” (priority 2023, dated 2024).
